From patent publication US12215106B2, “Pharmaceutical compounds and therapeutic methods” (RUTGERS, THE STATE UNIVERSITY OF NEW JERSEY, priority 2018, dated 2025) come the findings set out here.

The nature of data set [1]: Bi-directional Caco-2 transport assay. The class given is in vitro ADME. Conditions: human, Caco-2, 5 μM. The method, then:
(§1) The objective of the study is to evaluate test compounds as substrates for efflux transporter using Caco-2 cell line. To assess the functionality of P-glycoprotein (P-gp), loperamide was run as a positive control (Apical and basolateral HBSS pH 7.4).
(§2) 5 mM DMSO stock of test compounds and loperamide was diluted 1000-folds in HBSS having 0.1% DMSO to prepare concentrations of 5 μM.
(§3) Caco-2 cells were grown in DMEM (20% FBS) until 85-90% confluence. After attaining required confluence, cells were trypsinized and seeded into 24 well millcell plates at a density of 0.6×10^5 cells/insert. The plates were maintained for 21 days at 37° C. in CO2 incubator with change of medium every alternative day. Monolayer integrity was monitored by measuring Trans-epithelial electrical resistance (TEER) from day 15.
(§4) Caco-2 cell monolayer was washed twice with HBSS and incubated for 40 min in CO2 incubator. TEER values were measured and wells showing TEER values above 230 ohms·cm^2 were taken for experiments. The study was performed in loperamide and test compounds by adding 400 μL of loperamide prepared in HBSS in apical (A-B transport) followed by addition of 800 μL of HBSS on basal side and for B-A transport 800 μL of loperamide prepared in HBSS was dosed in basal followed by addition of 400 μL HBSS on apical side. At selected time points (0, 15, 30, 60 and 90 mins) an aliquot of 50 μL was collected from the receiver compartment for determination of test compound concentrations. The volume withdrawn was replaced immediately with HBSS buffer. TEER was measured at the end to the experiment to confirm any damage of monolayer while performing experiment. Those wells with TEER not meeting the criteria were excluded from the study.
(§5) A 50 μL of test compound samples collected at respective time points and submitted for LC-MS/MS analysis.
(§6) The apparent permeability (Papp) (A−B & B−A) of test compounds and positive control was calculated using the following formula: Papp=dQ/dt/A·Co where, dQ/dt=linear slope of test compound concentration in receptor chamber with time (0, 15, 30, 60 and 90 min) after correcting for dilution; A=area of the filter (0.7 cm^2); and Co=initial concentration of compound in the donor compartment.
(§7) Efflux ratio (RE) was calculated using the following equation: RE=PB/A/PA/B where PB/A and PA/B represent the apparent permeability of test compound from the basal to apical and apical to basal side of cell monolayer.
(§8) Recovery represents: (amount of the compound recovered from donor at end of incubation+cumulative amount of compound in acceptor at end of incubation+amount of the compound in cell lysate or assay well)/amount of compound in donor solution at time zero*100
(§9) Compounds are classified based on Papp values as follows:
(§10) A compound having efflux ratio of >2 is considered as having potential as a P-gp substrate.

The subject of another data set is P-gp. Put plainly: Bi-directional Caco-2 transport assay. The class given is in vitro ADME. Particulars: human, Caco-2; efflux ratio >2: potential P-gp substrate; read-out: Efflux Ratio (B-A/A-B). The method, then:
as §1, §2, §3, §4, §5, §6, §7, §8, §9, §10

A short description of another data set: in vitro. The format is in vitro ADME, mice. Particulars: mouse; for fraction unbound at 4 h, 5 μM: plasma. The method, then: (§11) The objective of this study was to evaluate protein binding test compounds in mice plasma. This was accomplished by spiking the test compounds at a concentration of 5 μM into mice plasma and dialyzing against buffer until equilibrium is achieved (4 hours). Analyte area ratios of the test compounds in plasma and buffer were determined to calculate unbound and bound percentages of compound to the plasma proteins.
(§12) Phosphate buffered saline pack (0.1 M sodium phosphate and 0.15 M sodium chloride, pH 7.2) was dissolved in 500 mL of deionized water and pH was adjusted to 7.4 with 0.5 N NaOH.
(§13) 1 mM stock solutions were prepared in DMSO and diluted 200-folds in mice plasma to prepare a concentration of 5 μM. The final DMSO concentration in plasma was 0.5%.
(§14) Rapid equilibrium dialysis was performed with a rapid equilibrium dialysis (RED) device containing dialysis membrane with a molecular weight cut-off of 8,000 Daltons. Each dialysis insert contains two chambers. The red chamber is for plasma while the white chamber is for buffer.
(§15) A 200 μL aliquot of warfarin and test compound at 5 (triplicates) were separately added to the plasma chamber and 350 μL of phosphate buffer saline (pH 7.4) was added to the buffer chamber of the inserts. After sealing the RED device with an adhesive film, dialysis was performed in incubator at 37° C. with shaking at 100 RPM for 4 hours.
(§16) A 50 μL aliquot of warfarin and test compounds were added to four 0.5 mL microfuse tubes. Two aliquots were frozen immediately (0 minute sample). The other two aliquots were incubated at 37° C. for 4 hours along with the RED device.
(§17) Following dialysis, an aliquot of 50 μL was removed from each well (both plasma and buffer side) and diluted with equal volume of opposite matrix (dialyzed with the other matrix) to nullify the matrix effect. Similarly, 50 μL of buffer was added to recovery and stability samples. An aliquot of 100 μL was submitted for LCMS/MS analysis.
(§18) A 25 μL aliquot of warfarin and test compounds were crashed with 100 μL of acetonitrile containing internal standard (glipizide) and vortexed for 5 minutes. The samples were centrifuged at 4000 RPM at 4° C. for 10 min and 100 μL of supernatant was submitted for LC-MS/MS analysis. Samples were monitored for parent compound in MRM mode using LC-MS/MS.
(§19) The peak area ratios (analyte versus internal standard) obtained were used to determine the fraction of compound bound to plasma proteins.

The subject of another data set is mice plasma. Put plainly: in vitro. Conditions: mouse, plasma, 4 h, 5 μM. The class given is in vitro ADME. The method, then:
as §11, §12, §13, §14, §15, §16, §17, §18, §19

Take `CN(C)C(=O)C(CCN1CCC(O)(c2ccc(Cl)cc2)CC1)(c1ccccc1)c1ccccc1` [Loperamide, reference compound]: the Papp A→B at 90 min, 5 μM in data set [1] (HBSS pH 7.4, apical to basal, read-out: Papp (A-B)) came to 1.6 ± 0.2 ×10⁻⁶ cm/s. For the same molecule, the Papp B→A at 90 min, 5 μM in data set [1] (HBSS pH 7.4, basal to apical, read-out: Papp (B-A)) is 8.4 ± 1.2 ×10⁻⁶ cm/s. Further, in the data set on P-gp, the efflux ratio at 90 min, 5 μM amounted to 5.2.

In turn, `CC(=O)CC(c1ccccc1)c1c(O)c2ccccc2oc1=O` (stereo not drawn) [Warfarin, reference compound] registered a recovery at 4 h, 5 µM in the data set “in vitro” (Plasma, pH 7.4) of 109%. For the same molecule, the fraction unbound at 4 h, 5 μM is 0.069 in “in vitro” (pH 7.4, % Bound Mean ± SD); 0.071 in the data set “in vitro” (pH 7.4, % Bound R1); 0.075 in “in vitro” (pH 7.4, % Bound R2); 0.062 in “in vitro” (pH 7.4, % Bound R3). In addition, in the data set on mice plasma, the “% compound remaining at 4 hrs” value was found to be 94%.
